Test results published in patent publication US20180325914A1, “INCREASING STORAGE OF VITAMIN A, VITAMIN D AND/OR LIPIDS” (Salk Institute for Biological Studies, priority 2014, published 2018).

System: primary HSCs
[1] = mRNA-Seq expression, primary HSCs, day 6 with JQ1

In the case of `Cc1sc2c(c1C)C(c1ccc(Cl)cc1)=N[C@@H](CC(=O)OC(C)(C)C)c1nnc(C)n1-2` [JQ1, (S)-tert-butyl 2-(4-(4-chlorophenyl)-2,3,9-trimethyl-6H-thieno[3,2-f][1,2,4]triazolo[4,3-a][1,4]diazepin-6-yl)acetate], the “Elfn1 value_2 (Day_6_JQ1)” value [1] is reported as 0.4141, the “Eln value_2 (Day_6_JQ1)” value [1] is reported as 0.6077 and the “Esrp2 value_2 (Day_6_JQ1)” value [1] is reported as 0.7459. The “Etv4 value_2 (Day_6_JQ1)” value [1] was 1.116, the “F3 value_2 (Day_6_JQ1)” value [1] was 32.9312 and the “Fam132b value_2 (Day_6_JQ1)” value [1] was 0.6136. The “Fam198b value_2 (Day_6_JQ1)” value [1] was 1.907, the “Fblim1 value_2 (Day_6_JQ1)” value [1] was 12.2302 and the “Fibin value_2 (Day_6_JQ1)” value [1] was 1.847. For the same compound, the “Fkbp10 value_2 (Day_6_JQ1)” value [1] was 27.4534, the “Fkbp11 value_2 (Day_6_JQ1)” value [1] was 6.955 and the “Fst value_2 (Day_6_JQ1)” value [1] was 3.079. For the same compound, the “Fxyd6 value_2 (Day_6_JQ1)” value [1] was 0.9921, the “Gbx2 value_2 (Day_6_JQ1)” value [1] was 0.4331 and the “Gjb3 value_2 (Day_6_JQ1)” value [1] was 0.08229. The “Gjb5 value_2 (Day_6_JQ1)” value [1] was 0.1388, the “Gm12824 value_2 (Day_6_JQ1)” value [1] was 0.8107 and the “Gpr176 value_2 (Day_6_JQ1)” value [1] was 5.413. The “Has2 value_2 (Day_6_JQ1)” value [1] was 1.812, the “Hebp2 value_2 (Day_6_JQ1)” value [1] was 0.7684 and the “Hhipl1 value_2 (Day_6_JQ1)” value [1] was 0.517. For the same compound, the “Hsd11b1 value_2 (Day_6_JQ1)” value [1] was 3.839, the “Hspb2 value_2 (Day_6_JQ1)” value [1] was 6.826 and the “Hspb7 value_2 (Day_6_JQ1)” value [1] was 0.2986. The “Htra3 value_2 (Day_6_JQ1)” value [1] was 1.896, the “Ivl value_2 (Day_6_JQ1)” value [1] was 0.5056 and the “Jph2 value_2 (Day_6_JQ1)” value [1] was 3.451. The “Kcnmb1 value_2 (Day_6_JQ1)” value [1] was 0.01726, the “Kctd15 value_2 (Day_6_JQ1)” value [1] was 1.124 and the “Lmod1 value_2 (Day_6_JQ1)” value [1] was 5.533. For the same compound, the “Lox14 value_2 (Day_6_JQ1)” value [1] was 6.181, the “Lox value_2 (Day_6_JQ1)” value [1] was 102.497 and the “Ltbp1 value_2 (Day_6_JQ1)” value [1] was 3.833. The “Ltbp2 value_2 (Day_6_JQ1)” value [1] was 4.7344, the “Mfap4 value_2 (Day_6_JQ1)” value [1] was 0.2994 and the “Mfap5 value_2 (Day_6_JQ1)” value [1] was 1.011. For the same compound, the “Mgp value_2 (Day_6_JQ1)” value [1] was 22.5571, the “Mmp23 value_2 (Day_6_JQ1)” value [1] was 6.014 and the “Mrap value_2 (Day_6_JQ1)” value [1] was 0.2549. The “Mrgprf value_2 (Day_6_JQ1)” value [1] was 1.3677, the “Myl9 value_2 (Day_6_JQ1)” value [1] was 142.669 and the “Naalad2 value_2 (Day_6_JQ1)” value [1] was 0.9739. The “Nfatc4 value_2 (Day_6_JQ1)” value [1] was 2.235, the “Npr3 value_2 (Day_6_JQ1)” value [1] was 8.408 and the “Olfm2 value_2 (Day_6_JQ1)” value [1] was 0.8372. For the same compound, the “P2ry14 value_2 (Day_6_JQ1)” value [1] was 6.946, the “P4ha3 value_2 (Day_6_JQ1)” value [1] was 1.335 and the “Pappa value_2 (Day_6_JQ1)” value [1] was 0.6606. The “Pdgfc value_2 (Day_6_JQ1)” value [1] was 1.527, the “Pdgfrl value_2 (Day_6_JQ1)” value [1] was 0.4741 and the “Pdlim3 value_2 (Day_6_JQ1)” value [1] was 0.5953. For the same compound, the “Pla1a value_2 (Day_6_JQ1)” value [1] was 2.047, the “Postn value_2 (Day_6_JQ1)” value [1] was 58.0905 and the “Prelid2 value_2 (Day_6_JQ1)” value [1] was 1.71. The “Prkar1b value_2 (Day_6_JQ1)” value [1] was 1.1011, the “Pstpip1 value_2 (Day_6_JQ1)” value [1] was 0.2607 and the “Ptgs2 value_2 (Day_6_JQ1)” value [1] was 2.221. For the same compound, the “Ptprn value_2 (Day_6_JQ1)” value [1] was 5.204, the “Rap1gap2 value_2 (Day_6_JQ1)” value [1] was 2.58 and the “Rasl12 value_2 (Day_6_JQ1)” value [1] was 0.3063. The “Rgs4 value_2 (Day_6_JQ1)” value [1] was 2.345, the “Saa3 value_2 (Day_6_JQ1)” value [1] was 10.7546 and the “Serpinb9b value_2 (Day_6_JQ1)” value [1] was 4.136. The “Serpinf1 value_2 (Day_6_JQ1)” value [1] was 66.5572, the “Sertad4 value_2 (Day_6_JQ1)” value [1] was 0.6904 and the “Slc16a3 value_2 (Day_6_JQ1)” value [1] was 10.7025. The “Sorcs2 value_2 (Day_6_JQ1)” value [1] was 0.1588, the “Spon2 value_2 (Day_6_JQ1)” value [1] was 12.3682 and the “Srpx2 value_2 (Day_6_JQ1)” value [1] was 2.998. The “Stra6 value_2 (Day_6_JQ1)” value [1] was 0.07484, the “Syt13 value_2 (Day_6_JQ1)” value [1] was 6.257 and the “Tfpi2 value_2 (Day_6_JQ1)” value [1] was 4.486. For the same compound, the “Thy1 value_2 (Day_6_JQ1)” value [1] was 2.222, the “Tll1 value_2 (Day_6_JQ1)” value [1] was 0.3916 and the “Tmeff1 value_2 (Day_6_JQ1)” value [1] was 5.181. The “Tmem200a value_2 (Day_6_JQ1)” value [1] was 0.3192, the “Tnfsf8 value_2 (Day_6_JQ1)” value [1] was 0.1581 and the “Tnfsf13b value_2 (Day_6_JQ1)” value [1] was 1.119. For the same compound, the “Tnfsf15 value_2 (Day_6_JQ1)” value [1] was 0.07599, the “Tnfsf18 value_2 (Day_6_JQ1)” value [1] was 0.24 and the “Trpc6 value_2 (Day_6_JQ1)” value [1] was 0.05189. For the same compound, the “Wbscr17 value_2 (Day_6_JQ1)” value [1] was 0.7256, the “Wisp1 value_2 (Day_6_JQ1)” value [1] was 4.262 and the “Wisp2 value_2 (Day_6_JQ1)” value [1] was 1.369. For the same compound, the “Wnt11 value_2 (Day_6_JQ1)” value [1] was 1.299, the “Zfp827 value_2 (Day_6_JQ1)” value [1] was 0.4625 and the “1110003E01Rik value_2” value (mRNA-Seq, sample Day_6_JQ1) was 69.1288. For the same compound, the “1600014C10Rik value_2” value (mRNA-Seq, sample Day_6_JQ1) was 21.437, the “2310022B05Rik value_2” value (mRNA-Seq, sample Day_6_JQ1) was 132.474 and the “Adam15 value_2” value (mRNA-Seq, sample Day_6_JQ1) was 78.5951. For the same compound, the “Afap1l2 value_2” value (mRNA-Seq, sample Day_6_JQ1) was 58.9193, the “Ahdc1 value_2” value (mRNA-Seq, sample Day_6_JQ1) was 13.24 and the “Apln value_2” value (mRNA-Seq, sample Day_6_JQ1) was 16.0329. The “Arhgap11a value_2” value (mRNA-Seq, sample Day_6_JQ1) was 12.9839, the “Arhgef17 value_2” value (mRNA-Seq, sample Day_6_JQ1) was 35.1441 and the “Aurkb value_2” value (mRNA-Seq, sample Day_6_JQ1) was 18.2306. The “BC018242 value_2” value (mRNA-Seq, sample Day_6_JQ1) was 17.3751, the “BC031353 value_2” value (mRNA-Seq, sample Day_6_JQ1) was 10.0028 and the “BC046404 value_2” value (mRNA-Seq, sample Day_6_JQ1) was 27.3155. The “Bambi value_2” value (mRNA-Seq, sample Day_6_JQ1) was 20.2742, the “Basp1 value_2” value (mRNA-Seq, sample Day_6_JQ1) was 173.108 and the “Bicc1 value_2” value (mRNA-Seq, sample Day_6_JQ1) was 86.5801. For the same compound, the “Bphl value_2” value (mRNA-Seq, sample Day_6_JQ1) was 18.4476, the “C330027C09Rik value_2” value (mRNA-Seq, sample Day_6_JQ1) was 10.1673 and the “Cadm4 value_2” value (mRNA-Seq, sample Day_6_JQ1) was 23.19. The “Cbx5 value_2” value (mRNA-Seq, sample Day_6_JQ1) was 28.9059.
